Laboratory results from ChEMBL document CHEMBL4340572, “Gentiopicroside isolated from Gentiana scabra Bge. inhibits adipogenesis in 3T3-L1 cells and reduces body weight in diet-induced obese mice” (Bioorg Med Chem Lett, 2019).
The source made the active and inactive calls. The calls are words filed in the database; no cut-off is given here.

Tests used:
[1] = tested on: 3T3-L1; test: Antiinflammatory activity in mouse 3T3L1 cells assessed as reduction in IL-6 mRNA expression up to 10 uM incubated for 8 days followed by compound wash out measured by RT-PCR method; type: functional, cell-based
[2] = tested on: 3T3-L1; test: Downregulation of PPARgamma mRNA expression in mouse 3T3L1 cells up to 10 uM incubated for 8 days followed by compound wash out measured by RT-PCR method; type: functional, cell-based
[3] = tested on: 3T3-L1; test: Downregulation of C/EBPalpha mRNA expression in mouse 3T3L1 cells up to 10 uM incubated for 8 days followed by compound wash out measured by RT-PCR method; type: functional, cell-based
[4] = tested on: 3T3-L1; test: Downregulation of FABP4 mRNA expression in mouse 3T3L1 cells up to 10 uM incubated for 8 days followed by compound wash out measured by RT-PCR method; type: functional, cell-based
[5] = tested on: 3T3-L1; test: Cytotoxicity against mouse 3T3L1 cells assessed as reduction in cell viability up to 10 uM; type: cell-based
[6] = tested on: 3T3-L1; test: Anti-adipogenic activity in mouse 3T3L1 cells grown in differentiation media assessed as decrease in lipid accumulation incubated for 8 days by Oil Red O staining based method; type: functional, cell-based
[7] = tested on: 3T3-L1; test: Inhibition of cell differentiation in mouse 3T3L1 cells assessed as reduction in pre-adipocyte differentiation into matured adipocytes at 5 uM incubated for 8 days followed by compound wash out measured by oil red O staining based method relative to control; type: functional; settings: 3T3-L1, 192 h
[8] = tested on: 3T3-L1; test: Antiinflammatory activity in mouse 3T3L1 cells assessed as reduction in TNFalpha mRNA expression up to 10 uM incubated for 8 days followed by compound wash out measured by RT-PCR method; type: functional, cell-based
[9] = tested on: 3T3-L1; test: Downregulation of LPL mRNA expression in mouse 3T3L1 cells up to 10 uM incubated for 8 days followed by compound wash out measured by RT-PCR method; type: functional, cell-based
[10] = tested on: Mus musculus; test: Antiobesity activity in HFD-induced obese C57BL/6N mouse model assessed as reduction in epididymal WAT adipocyte size at 50 mg/kg, po administered once daily for 12 weeks by H and E staining based microscopic method; type: functional, organism-based
[11] = tested on: 3T3-L1; test: Antiinflammatory activity in mouse 3T3L1 cells assessed as reduction in NFkappaB1 mRNA expression level up to 10 uM incubated for 8 days followed by compound wash out measured by RT-PCR method; type: functional, cell-based
[12] = tested on: Mus musculus; test: Antiobesity activity in HFD-induced obese C57BL/6N mouse model assessed as decrease in visceral fat mass at 50 mg/kg, po administered once daily for 12 weeks; type: functional, organism-based
[13] = tested on: Mus musculus; test: Antiobesity activity in HFD-induced obese C57BL/6N mouse model assessed as decrease in epididymal fat mass level at 50 mg/kg, po administered once daily for 12 weeks; type: functional, organism-based
[14] = tested on: 3T3-L1; test: Downregulation of DGAT2 mRNA expression in mouse 3T3L1 cells up to 10 uM incubated for 8 days followed by compound wash out measured by RT-PCR method; type: functional, cell-based
[15] = tested on: 3T3-L1; test: Downregulation of SREBP-1c mRNA expression in mouse 3T3L1 cells up to 10 uM incubated for 8 days followed by compound wash out measured by RT-PCR method; type: functional, cell-based
[16] = tested on: 3T3-L1; test: Downregulation of FAS mRNA expression in mouse 3T3L1 cells up to 10 uM incubated for 8 days followed by compound wash out measured by RT-PCR method; type: functional, cell-based
[17] = tested on: 3T3-L1; test: Anti-adipogenic activity in mouse 3T3L1 cells grown in differentiation media assessed as decrease in lipid accumulation up to 10 uM incubated for 8 days by Oil Red O staining based method; type: functional
[18] = tested on: 3T3-L1; test: Downregulation of SCD1 mRNA expression in mouse 3T3L1 cells up to 10 uM incubated for 8 days followed by compound wash out measured by RT-PCR method; type: functional, cell-based
[19] = tested on: Mus musculus; test: Antiobesity activity in HFD-induced obese C57BL/6N mouse model assessed as decrease in body weight at 50 mg/kg, po administered once daily for 12 weeks and measured every week for 12 weeks; type: functional, organism-based

C=C[C@@H]1C2=CCOC(=O)C2=CO[C@H]1O[C@@H]1O[C@H](CO)[C@@H](O)[C@H](O)[C@H]1O [GENTIOPICROSIDE]
Activity [1]: Active | Activity [2]: Active | Activity [3]: Active | Activity [4]: Active | Activity [5]: Non-Toxic | Activity [6]: Dose-dependent effect | inhibition at 5 µM [7]: ≤ 72% | Activity [8]: Active | Activity [9]: Active | Activity [10]: Active | Activity [11]: Active | Activity [12]: Active | Activity [13]: Active | Activity [14]: Active | Activity [15]: Active | Activity [16]: Active | inhibition (INH) [17]: <=64% | Activity [18]: Active | Activity [19]: Active
